Patent EP0244728B1, “Use of heteroarylethyl amines to stimulate animal growth, heteroarylethyl amines and process for their preparation” (BAYER AG, priority 1986, dated 1987)

Assay: Rat feeding trial (Ratten-Fütterungsversuch), Beispiel A
Type: in vivo
Conditions: Dosis 100 ppm in feed ad lib; female SPF Wistar rats, 90-110 g; 13-day trial; control without active substance = 100
Source text: Weibliche Laborratten 90-110 g schwer vom Typ SPF Wistar (Züchtung Hagemann) werden ad lib mit Standard Rattenfutter, das mit der gewünschten Menge Wirkstoff versetzt ist, gefüttert. Jeder Versuchsansatz wird mit Futter der identischen Charge durchgeführt, so daß Unterschiede in der Zusammensetzung des Futters die Vergleichbarkeit der Ergebnisse nicht beeinträchtigen können.
Die Ratten erhalten Wasser ad lib.
Jeweils 12 Ratten bilden eine Versuchsgruppe und werden mit Futter, das mit der gewünschten Menge Wirkstoff versetzt ist gefüttert. Eine Kontrollgruppe erhält Futter ohne Wirkstoff. Das durchschnittliche Körpergewicht sowie die Streuung in den Körpergewichten der Ratten ist in jeder Versuchsgruppe gleich, so daß eine Vergleichbarkeit der Versuchsgruppen untereinander gewährleistet ist.
Während des 13-tägigen Versuchs werden Gewichtszunahme und Futterverbrauch bestimmt.

SMILES: CC(C)(C)NCC(O)c1cc(Cl)nc(Cl)c1 (stereo not shown) [compound 1]
- Gewichtszunahme: 110

SMILES: CC(C)NCC(O)c1ccc(N)cn1 (stereo not shown) [compound 7]
- Gewichtszunahme: 120

SMILES: CC(C)(C)NCC(O)c1ccc(N)c(Cl)n1 (stereo not shown) [compound 6]
- Gewichtszunahme: 110

SMILES: CC(C)(C)NCC(O)c1cnc(N)c(Cl)c1 (stereo not shown) [compound 3]
- Gewichtszunahme: 115
